For 77 compounds, IC50 results are on record in patent publication US20240190855A1 (Relay Therapeutics, Inc., priority 2021, published 2024).

In the assay the target is T1, CDK2/Cyclin E complex (Homo sapiens, UniProt P24941).
T1 construct: purchased Eurofins 14-475
Put plainly: CDK2/Cyclin E fluorescence-based microfluidic mobility shift assay (CDK2 Biochemical Caliper Assay). Particulars: read-out: Biochemical CDK2/CyclinE Caliper IC50. A digest of the protocol:
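Wild-type CDK2/Cyclin E was preincubated with compound and ATP for 30 min at RT before the 5-FAM-QSPKKG peptide was added. Final concentrations were 0.1 nM enzyme, 2000 uM ATP, 1.5 uM peptide and 1% DMSO. After 20 hr at RT and EDTA stop, substrate conversion was read by microfluidic mobility shift over an 11-point, 3-fold dilution series.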
Take `COCc1cc2c(Nc3cc([C@@H]4C[C@H](OC(=O)N[C@@H](C)C5CC5)CO4)[nH]n3)nccn2n1` [Example 766]: the IC50 is at most 100 nM.

For the compound `COCc1cc2c(Nc3cc([C@@H]4C[C@H](OC(=O)NC56CC(C5)C6)CO4)[nH]n3)nccn2n1` [Example 767], the IC50 is at most 100 nM.

Regarding `COCc1cc2c(Nc3cc([C@H]4C[C@@H](Oc5[nH]ncc5C(C)(C)C)CO4)[nH]n3)nccn2n1` [Example 768], the IC50 is at most 100 nM.

As to `CC1(NC(=O)O[C@H]2CO[C@@H](c3cc(Nc4nccn5nc(C(F)F)cc45)n[nH]3)C2)CC1` [Example 769], the IC50 was at most 100 nM.

With `Cn1nc(C(F)(F)F)cc1C(=O)Nc1cc([C@H]2C[C@@H](OC(=O)NC3(C)CC3)CO2)[nH]n1` [Example 770], the IC50 is at most 100 nM.

`Cn1nc(COCC(F)(F)F)cc1C(=O)Nc1cc([C@H]2C[C@@H](OC(=O)NC3(C)CC3)CO2)[nH]n1` [Example 771]: the IC50 is at most 100 nM.

`C[C@H](NC(=O)O[C@H]1CO[C@@H](c2cc(NC(=O)c3cc(COC(F)F)nn3C)n[nH]2)C1)C1CC1` [Example 772]: the IC50 is at most 100 nM.

For the compound `Cn1nc(COC(F)(F)F)cc1C(=O)Nc1cc([C@@H]2C[C@H](OC(=O)NC3(C)CC3)CO2)[nH]n1` [Example 773], the IC50 is at most 100 nM.

On to `CC(C)(C)n1cnnc1O[C@H]1CO[C@@H](c2cc(Nc3nccn4nccc34)n[nH]2)C1` [Example 774], for which the IC50 was at most 100 nM.

On to `COCc1cc2c(Nc3cc([C@H]4C[C@@H](OC(=O)N[C@H]5C[C@H]5C)CO4)[nH]n3)nccn2n1` [Example 775], for which the IC50 is at most 100 nM.

Take `Cn1nc(COC(F)(F)F)cc1C(=O)Nc1cc([C@@H]2C[C@H](OC(=O)NC34CC(C3)C4)CO2)[nH]n1` [Example 776]: the IC50 was at most 100 nM.

Regarding `C[C@H](NC(=O)O[C@@H]1CO[C@H](c2cc(NC(=O)c3cc(COC(F)(F)F)nn3C)n[nH]2)C1)C1CC1` [Example 780], the IC50 is at most 100 nM.

For `CC1(NC(=O)O[C@H]2CO[C@@H](c3cc(Nc4nccn5nccc45)n[nH]3)C2)CC1` [Example 781], the IC50 was at most 100 nM.

As to `CC1(NC(=O)O[C@@H]2CO[C@H](c3cc(Nc4nccn5nccc45)n[nH]3)C2)CC1` [Example 782], the IC50 is at most 100 nM.

For `COCc1cc2c(Nc3cc([C@H]4C[C@@H](Oc5nn(C)cc5C(C)(C)C)CO4)[nH]n3)nccn2n1` [Example 783], the IC50 lay within 1000 to 100000 nM.

In the case of `CC(C)n1cnnc1O[C@H]1CO[C@@H](c2cc(Nc3nccn4nccc34)n[nH]2)C1` [Example 784], the IC50 was at most 100 nM.

As to `Cn1nc(CC(F)(F)F)cc1C(=O)Nc1cc([C@H]2C[C@@H](OC(=O)NC3(C)CC3)CO2)[nH]n1` [Example 785], the IC50 is at most 100 nM.

As to `Cn1nc(C(F)F)cc1C(=O)Nc1cc([C@H]2C[C@@H](OC(=O)NC3(C)CC3)CO2)[nH]n1` [Example 786], the IC50 is at most 100 nM.

As for `Cn1nc(OC(F)(F)F)cc1C(=O)Nc1cc([C@H]2C[C@@H](OC(=O)NC3(C)CC3)CO2)[nH]n1` [Example 787], the IC50 is at most 100 nM.

Regarding `Cn1nc(COC(F)(F)F)cc1C(=O)Nc1cc([C@H]2C[C@@H](OC(=O)NC3(C#N)CC3)CO2)[nH]n1` [Example 788], the IC50 is at most 100 nM.

As for `COCc1cc2c(Nc3cc([C@H]4C[C@@H](Oc5nn(C)cc5C(C)C)CO4)[nH]n3)nccn2n1` [Example 790], the IC50 was 1000 to 100000 nM.

For the compound `Cn1nc(CCOC(F)(F)F)cc1C(=O)Nc1cc([C@H]2C[C@@H](OC(=O)NC3(C)CC3)CO2)[nH]n1` [Example 791], the IC50 is at most 100 nM.

`Cc1cc2c(c(Nc3cc(C4CCCC4)[nH]n3)n1)C(=O)NC2=O` [Example 792]: the IC50 was 1000 to 100000 nM.

On to `c1cn2ncc(Nc3cc(C4CCCC4)[nH]n3)cc2n1` [Example 793], for which the IC50 is 1000 to 100000 nM.

Consider `c1c(Nc2ncc3c(n2)C2CCC3C2)n[nH]c1C1CCCC1` (centres unmarked) [Example 794], for which the IC50 was 1000 to 100000 nM.

With `Cc1cc(C)n2ccnc(Nc3cc(C4CCCC4)[nH]n3)c12` [Example 795], the IC50 lay in the range of 1000 to 100000 nM.

`CC1(C)NC(=O)c2ccc(Nc3cc(C4CCCC4)[nH]n3)nc21` [Example 796]: the IC50 was at most 100 nM.

Take `Cc1nc(Nc2cc(C3CCCC3)[nH]n2)cc2nncn12` [Example 797]: the IC50 was 1000 to 100000 nM.

For the compound `N#CCc1c[nH]c2nccc(Nc3cc(C4CCCC4)[nH]n3)c12` [Example 798], the IC50 was 1000 to 100000 nM.

In the case of `Cc1cncc(Cl)c1Nc1cc(C2CCCC2)[nH]n1` [Example 799], the IC50 lay in the range of 1000 to 100000 nM.

With `COC(=O)c1cc(Nc2cc(C3CCCC3)[nH]n2)cnn1` [Example 800], the IC50 was 1000 to 100000 nM.

For the compound `Clc1cccc2nc(Nc3cc(C4CCCC4)[nH]n3)cnc12` [Example 801], the IC50 was in the range of 1000 to 100000 nM.

For `Cc1cc(Nc2cc(C3CCCC3)[nH]n2)n2nc(C)cc2n1` [Example 802], the IC50 lay in the range of 1000 to 100000 nM.

Turning to `COC(=O)c1cnc(C)cc1Nc1cc(C2CCCC2)[nH]n1` [Example 803], the IC50 lay in the range of 1000 to 100000 nM.

Regarding `COc1cnc2c(Nc3cc(C4CCCC4)[nH]n3)nccc2c1` [Example 804], the IC50 lay within 1000 to 100000 nM.

For `Cc1csc2nc(Nc3cc(C4CCCC4)[nH]n3)ncc12` [Example 805], the IC50 fell in the range of 1000 to 100000 nM.

In the case of `Cc1cc(C)nc(Nc2cc(C3CCCC3)[nH]n2)n1` [Example 806], the IC50 was 1000 to 100000 nM.

In the case of `CCCc1cnnc(Nc2cc(C3CCCC3)[nH]n2)c1` [Example 807], the IC50 fell in the range of 1000 to 100000 nM.

Consider `CCCCOc1ccc(Nc2cc(C3CCCC3)[nH]n2)nc1` [Example 808], for which the IC50 lay within 1000 to 100000 nM.

As for `CC1Cc2nc(Nc3cc(C4CCCC4)[nH]n3)ncc2C(C)O1` (centres unmarked) [Example 809], the IC50 lay within 1000 to 100000 nM.

As for `COc1cc(Nc2cc(C3CCCC3)[nH]n2)nc2sccc12` [Example 810], the IC50 was in the range of 1000 to 100000 nM.

Regarding `COCCOc1ccnc(Nc2cc(C3CCCC3)[nH]n2)n1` [Example 811], the IC50 was in the range of 1000 to 100000 nM.

Regarding `Cc1cc(Nc2cc(C3CCCC3)[nH]n2)c2c(F)cccc2n1` [Example 812], the IC50 lay within 1000 to 100000 nM.

As for `Oc1ccc2ccnc(Nc3cc(C4CCCC4)[nH]n3)c2c1` [Example 813], the IC50 lay in the range of 1000 to 100000 nM.

Consider `CC(C)c1cc(Nc2cc(C3CCCC3)[nH]n2)n2ncnc2n1` [Example 817], for which the IC50 was in the range of 1000 to 100000 nM.

As for `Cc1cn2nccc2c(Nc2cc(C3CCCC3)[nH]n2)n1` [Example 822], the IC50 is 250 to 1000 nM.

Regarding `Cc1[nH]nc2nccc(Nc3cc(C4CCCC4)[nH]n3)c12` [Example 827], the IC50 lay in the range of 1000 to 100000 nM.

For the compound `O=C1COc2ncnc(Nc3cc(C4CCCC4)[nH]n3)c2N1` [Example 831], the IC50 lay in the range of 1000 to 100000 nM.

With `Cc1cn2nc(Nc3cc(C4CCCC4)[nH]n3)cc(C)c2n1` [Example 832], the IC50 lay within 1000 to 100000 nM.

For the compound `c1cc(Nc2cc(C3CCCC3)[nH]n2)n2ccnc2n1` [Example 837], the IC50 lay in the range of 1000 to 100000 nM.

`Cc1nc(Nc2cc(C3CCCC3)[nH]n2)c2sccc2n1` [Example 839]: the IC50 is 1000 to 100000 nM.

Regarding `OCCOc1cncc(Nc2cc(C3CCCC3)[nH]n2)n1` [Example 842], the IC50 was 100 to 250 nM.

Turning to `O=c1ccc2nc(Nc3cc(C4CCCC4)[nH]n3)ccc2[nH]1` [Example 849], the IC50 was 1000 to 100000 nM.

As for `Clc1ccn2c(Nc3cc(C4CCCC4)[nH]n3)nnc2c1` [Example 850], the IC50 lay within 1000 to 100000 nM.

In the case of `Cc1nc(Nc2cc(C3CCCC3)[nH]n2)cc(-c2ccco2)n1` [Example 853], the IC50 lay in the range of 1000 to 100000 nM.

Take `Cc1cc(C(F)(F)F)c(Nc2cc(C3CCCC3)[nH]n2)nn1` [Example 855]: the IC50 was in the range of 1000 to 100000 nM.

On to `Cc1cnnc(Nc2cc(C3CCCC3)[nH]n2)c1C(=O)O` [Example 856], for which the IC50 fell in the range of 1000 to 100000 nM.

Take `CS(=O)(=O)N1CCC(Nc2cc(C3CCCC3)[nH]n2)CC1` [Example 857]: the IC50 lay within 1000 to 100000 nM.

Regarding `Cc1cc2ccccc2c(Nc2cc(C3CCCC3)[nH]n2)n1` [Example 858], the IC50 fell in the range of 1000 to 100000 nM.

As for `Cc1cc2ncnc(Nc3cc(C4CCCC4)[nH]n3)c2[nH]1` [Example 859], the IC50 fell in the range of 1000 to 100000 nM.

Regarding `Fc1cnc(Nc2cc(C3CCCC3)[nH]n2)c2ccccc12` [Example 860], the IC50 lay in the range of 1000 to 100000 nM.

In the case of `c1cc2c(Nc3cc(C4CCCC4)[nH]n3)ncnn2c1` [Example 861], the IC50 is 1000 to 100000 nM.

Regarding `Cc1cnc(Nc2cc(C3CCCC3)[nH]n2)c(C)n1` [Example 862], the IC50 was 1000 to 100000 nM.

Turning to `Cc1c(F)c(Nc2cc(C3CCCC3)[nH]n2)nc2ccccc12` [Example 863], the IC50 fell in the range of 1000 to 100000 nM.

Turning to `CC(C)c1nc(Nc2cc(C3CCCC3)[nH]n2)c2cc[nH]c2n1` [Example 864], the IC50 is 250 to 1000 nM.

Take `COc1cnc2ncnc(Nc3cc(C4CCCC4)[nH]n3)c2c1` [Example 865]: the IC50 is 1000 to 100000 nM.

Turning to `Cc1c(Nc2cc(C3CCCC3)[nH]n2)nn2cnnc2c1C` [Example 866], the IC50 was 1000 to 100000 nM.

For the compound `c1cc2c(nc1Nc1cc(C3CCCC3)[nH]n1)CCOC2` [Example 867], the IC50 lay in the range of 1000 to 100000 nM.

For `COc1cccc2ccc(Nc3cc(C4CCCC4)[nH]n3)nc12` [Example 868], the IC50 was 1000 to 100000 nM.

In the case of `c1cn2nc3c(c2c(Nc2cc(C4CCCC4)[nH]n2)n1)CCC3` [Example 869], the IC50 is 1000 to 100000 nM.

As to `c1cn2nc(C3CC3)cc2c(Nc2cc(C3CCCC3)[nH]n2)n1` [Example 870], the IC50 lay in the range of 1000 to 100000 nM.

As for `c1ccc(-c2ncnc(Nc3cc(C4CCCC4)[nH]n3)n2)cc1` [Example 871], the IC50 was 1000 to 100000 nM.

As to `Cc1nc(Nc2cc(C3CCCC3)[nH]n2)c(C#N)c2c1CCC2` [Example 872], the IC50 was 1000 to 100000 nM.

Turning to `O=c1cc(Nc2cc(C3CCCC3)[nH]n2)c2ncccc2[nH]1` [Example 873], the IC50 fell in the range of 1000 to 100000 nM.

On to `Cc1cc(C(=O)O)c(Nc2cc(C3CCCC3)[nH]n2)nc1C` [Example 874], for which the IC50 is 1000 to 100000 nM.

`CCc1c(C)nc2ncnn2c1Nc1cc(C2CCCC2)[nH]n1` [Example 875]: the IC50 lay within 1000 to 100000 nM.

Consider `Oc1cc(Nc2cc(C3CCCC3)[nH]n2)ncn1` [Example 876], for which the IC50 was in the range of 1000 to 100000 nM.
